Experimental data as given in US10351522B2, “Sulfonamide derivative and pharmaceutically acceptable acid addition salt thereof” (UNIVERSITY OF TSUKUBA, priority 2015, dated 2019).
Read-outs that look alike come from different tables or passages of the source.

Tests used:
[1] = target: T1, human OX1R (Homo sapiens, UniProt O43613); test: Agonist activity against OX1R: intracellular calcium (Fura-2AM, FDSS7000) in CHOOX1R cells; assay type: cell-based; settings: for Emax at 0.1 µM / Emax at 1 µM / Emax at 10 µM: read-out: Response (%) OX1R
T1 construct: expressed in transfected cells; host or cells: CHO (Chinese hamster ovary) cells, line CHOOX1R, co-expressing NFAT-luciferase
T1 sequence (O43613 1-425): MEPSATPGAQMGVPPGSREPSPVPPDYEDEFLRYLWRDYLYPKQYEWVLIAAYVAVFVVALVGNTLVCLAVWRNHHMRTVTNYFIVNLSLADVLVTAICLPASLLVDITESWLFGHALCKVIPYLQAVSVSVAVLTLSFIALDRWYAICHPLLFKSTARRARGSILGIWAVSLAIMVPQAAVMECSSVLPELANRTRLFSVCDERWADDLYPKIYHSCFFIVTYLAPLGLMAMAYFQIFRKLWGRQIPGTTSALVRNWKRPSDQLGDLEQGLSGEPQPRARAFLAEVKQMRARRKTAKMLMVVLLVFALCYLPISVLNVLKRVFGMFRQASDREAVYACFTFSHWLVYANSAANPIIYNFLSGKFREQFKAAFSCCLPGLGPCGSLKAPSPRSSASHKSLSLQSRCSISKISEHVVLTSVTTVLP
In short: (§1)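 Response is agonist activity at 0.1, 1.0 or 10 μM compound as a percentage of the orexin-A full-agonist maximum, taken from 340/380 nm Fura-2 ratio changes. Each cell line is CHO constitutively expressing human OX1R or OX2R with NFAT-luciferase, dye-loaded 60 min with 5 μM Fura-2AM; compound range 10^−7–10^−5 M, 1% DMSO.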

[2] = target: T2, human OX2R (Homo sapiens, UniProt O43614); test: Agonist activity against OX2R: intracellular calcium (Fura-2AM, FDSS7000) in CHOOX2R cells; assay type: cell-based; settings: relative to orexin-A as full agonist (100%)
T2 construct: expressed in transfected cells; host or cells: CHO (Chinese hamster ovary) cells, line CHOOX2R, co-expressing NFAT-luciferase
T2 sequence (O43614 1-444): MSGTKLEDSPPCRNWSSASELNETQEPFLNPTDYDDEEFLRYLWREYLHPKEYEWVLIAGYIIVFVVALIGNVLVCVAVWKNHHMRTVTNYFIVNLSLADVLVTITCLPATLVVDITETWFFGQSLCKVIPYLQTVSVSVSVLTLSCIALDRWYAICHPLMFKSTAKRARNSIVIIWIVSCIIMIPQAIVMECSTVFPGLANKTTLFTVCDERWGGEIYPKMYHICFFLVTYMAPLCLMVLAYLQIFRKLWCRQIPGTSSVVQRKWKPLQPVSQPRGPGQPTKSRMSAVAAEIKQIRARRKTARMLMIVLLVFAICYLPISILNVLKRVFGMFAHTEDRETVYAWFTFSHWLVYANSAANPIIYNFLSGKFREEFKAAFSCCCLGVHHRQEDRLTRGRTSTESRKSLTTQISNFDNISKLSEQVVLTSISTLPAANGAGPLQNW
In short: as §1

[3] = 0.1 μM test compound, relative to orexin-A as full agonist (100%)
[4] = 1.0 μM test compound, relative to orexin-A as full agonist (100%)
[5] = 10 μM test compound, relative to orexin-A as full agonist (100%)
[6] = test compound 0.1 μM, relative to orexin-A as full agonist (100%)
[7] = test compound 1.0 μM, relative to orexin-A as full agonist (100%)
[8] = test compound 10 μM, relative to orexin-A as full agonist (100%)

SMILES | Response (%) OX1R [1, 3] | Response (%) OX1R [1, 4] | Response (%) OX1R [1, 5] | Response (%) OX2R ([2]; 0.1 μM test compound) | Response (%) OX2R ([2]; 1.0 μM test compound) | Response (%) OX2R ([2]; 10 μM test compound) | Response (%) OX2R ([2]; test compound 0.1 μM) | Response (%) OX2R ([2]; test compound 1.0 μM) | Response (%) OX2R ([2]; test compound 10 μM) | other results
COc1ccc(-c2cccc(C(=O)N(C)C)c2)cc1S(=O)(=O)Nc1cccc(NC(=O)Nc2ccc(N(C)C)nc2)c1 [Example 71] | 6% | <5% | 10% | 106% | 97% | 113% | – | – | – | –
COc1ccccc1CNc1cccc(NS(=O)(=O)c2cc(-c3cccc(C(=O)N(C)C)c3)ccc2OC)c1 [Example 21] | <5% | <5% | 12% | <5% | 37% | 54% | – | – | – | –
COc1ccc(-c2cccc(C(=O)N(C)C)c2)cc1S(=O)(=O)Nc1cccc(NC(=O)c2ccccc2C)c1 [Example 16] | <5% | <5% | 10% | <5% | 19% | 82% | – | – | – | –
COc1ccc(-c2cccc(C(=O)N(C)C)c2)cc1S(=O)(=O)Nc1cccc(NC(=O)Nc2cccc(C(=O)O)c2)c1 [Example 48] | <5% | <5% | <5% | <5% | <5% | 14% | – | – | – | –
COc1ccc(-c2cccc(C(=O)N(C)C)c2)cc1S(=O)(=O)Nc1cccc(NC(=O)c2ccc3ccccc3c2)c1 [Example 9] | 5% | 6% | 5% | <5% | 41% | 47% | – | – | – | –
COc1ccc(-c2cccc(C(=O)N(C)C)c2)cc1S(=O)(=O)Nc1cccc(NC(=O)Nc2ccncc2)c1 [Example 70] | 6% | 6% | 6% | 9% | 9% | 46% | – | – | – | –
COc1ccc(C(=O)NCc2cccnc2)cc1S(=O)(=O)Nc1cccc(NC(=O)Nc2ccc(N(C)C)cc2)c1 [Example 109] | – | – | – | – | – | – | 7% | 6% | 39% | Response (%) OX1R [1, 6]: 8%; Response (%) OX1R [1, 7]: 9%; Response (%) OX1R [1, 8]: 7%
COc1ccc(Nc2cccc(NS(=O)(=O)c3cc(-c4cccc(C(=O)N(C)C)c4)ccc3OC)c2)cc1OC [Example 33] | <5% | <5% | 50% | 37% | 92% | 87% | – | – | – | –
COc1ccc(C(=O)NCc2ccccc2)cc1S(=O)(=O)Nc1cccc(NC(=O)Nc2ccc(N(C)C)cc2)c1 [Example 108, N-benzyl-3-(N-(3-(3-(4-(dimethylamino)phenyl)ureido)phenyl)sulfamoyl)-4-methoxybenzamide] | – | – | – | – | – | – | 6% | 6% | 24% | Emax at 0.1 µM [1, 6]: < 5%; Emax at 1 µM [1, 7]: < 5%; Emax at 10 µM [1, 8]: < 5%
COc1ccc(-c2cccc(C(=O)N(C)C)c2)cc1S(=O)(=O)Nc1cccc(N2CCN(c3ccccc3)C2=O)c1 [Example 128, 4′-methoxy-N,N-dimethyl-3′-(N-(3-(2-oxo-3-phenylimidazolidin-1-yl)phenyl)sulfamoyl)-[1,1′-biphenyl]-3-carboxamide] | – | – | – | – | – | – | 10% | 77% | 105% | Emax at 0.1 µM [1]: < 5%; Emax at 1 µM [1]: < 5%; Emax at 10 µM [1]: 6%
CCN(Cc1cccnc1)C(=O)c1ccc(OC)c(S(=O)(=O)Nc2cccc(NC(=O)Nc3ccccc3N(C)C)c2)c1 [Example 113] | – | – | – | – | – | – | <5% | 6% | 73% | Response (%) OX1R [1, 6]: <5%; Response (%) OX1R [1, 7]: <5%; Response (%) OX1R [1, 8]: <5%
COc1ccc(-c2cccc(C(=O)N(C)C)c2)cc1S(=O)(=O)Nc1ccc(NC(=O)Nc2cccc(N(C)C)c2)cc1 [Example 122] | – | – | – | – | – | – | 7% | 7% | 10% | Response (%) OX1R [1, 6]: <5%; Response (%) OX1R [1, 7]: <5%; Response (%) OX1R [1, 8]: <5%
COc1ccccc1C(=O)Nc1cccc(NS(=O)(=O)c2cc(-c3cccc(C(=O)N(C)C)c3)ccc2OC)c1 [Example 18] | <5% | <5% | 15% | <5% | 6% | 44% | – | – | – | –
COc1ccc(-c2cccc(C(=O)N(C)C)c2)cc1S(=O)(=O)Nc1cccc(NC(=O)Nc2ccc(NC(=O)OC(C)(C)C)cc2)c1 [Example 72] | <5% | <5% | <5% | 7% | 59% | 79% | – | – | – | –
COc1ccc(-c2cccc(C(=O)N(C)C)c2)cc1S(=O)(=O)Nc1cccc(NC(=O)Nc2cccc(Br)c2)c1 [Example 50] | <5% | <5% | <5% | 100% | 94% | 97% | – | – | – | –
COc1ccc(-c2cccc(C(=O)N(C)C)c2)cc1S(=O)(=O)Nc1cccc(N2CCN(c3ccccc3N(C)C)C2=O)c1 [Example 129] | – | – | – | – | – | – | 85% | 93% | 92% | Response (%) OX1R [1, 6]: <5%; Response (%) OX1R [1, 7]: 41%; Response (%) OX1R [1, 8]: 81%
COc1ccc(-c2cccc(C(=O)N(C)C)c2)cc1S(=O)(=O)Nc1cccc(NCc2ccccc2)c1 [Example 20, 3′-(N-(3-(benzylamino)phenyl)sulfamoyl)-4′-methoxy-N,N-dimethyl-[1,1′-biphenyl]-3-carboxamide] | – | – | – | <5% | 51% | 78% | – | – | – | Emax at 0.1 µM [1, 3]: < 5%; Emax at 1 µM [1, 4]: < 5%; Emax at 10 µM [1, 5]: 17%
COc1ccc(C(=O)Nc2cccc(N(C)C)c2)cc1S(=O)(=O)Nc1cccc(NC(=O)Nc2cccc(N(C)C)c2)c1 [Example 106] | – | – | – | – | – | – | 9% | 7% | 46% | Response (%) OX1R [1, 6]: 8%; Response (%) OX1R [1, 7]: 7%; Response (%) OX1R [1, 8]: 8%
COc1ccc(-c2cccc(C(=O)N(C)C)c2)cc1S(=O)(=O)Nc1cccc(N=Nc2ccc(O)cc2NC(=O)OC(C)(C)C)c1 [Example 98] | – | – | – | – | – | – | 13% | 11% | 67% | Response (%) OX1R [1, 6]: 8%; Response (%) OX1R [1, 7]: 8%; Response (%) OX1R [1, 8]: 9%
COc1ccc(C(=O)Nc2cccc(NS(=O)(=O)c3cc(-c4cccc(C(=O)N(C)C)c4)ccc3OC)c2)cc1 [Example 19] | <5% | <5% | <5% | <5% | 10% | 58% | – | – | – | –
COc1ccc(-c2cccc(C(=O)N(C)C)c2)cc1S(=O)(=O)Nc1cccc(NC(=O)Nc2cccs2)c1 [Example 67] | 6% | 8% | 9% | 15% | 83% | 103% | – | – | – | –
